Measured values: patent US10548996B2, “Hydrogels for localized radiotherapy” (Washington University, priority 2014, dated 2020)

Tests used:
[1] = Release of radioactivity from implanted solid chitosan hydrogels to adjacent normal tissues (radiographic imaging); format: in vivo; conditions: FIG. 4; rats, non-encapsulated, loaded in solid chitosan hydrogel implant; Day-1 to Day-7
[2] = In vitro release of fluorescence from chitosan hydrogels to the surrounding media; format: physicochemical; conditions: FIG. 5, all time points tested, up to two weeks
Method: To determine the release of large molecules from the hydrogels, the following experiment was conducted. The chitosan hydrogels with the best injectability properties were analyzed naïve or loaded with the alginate microparticles with the best encapsulation efficiency. The in vitro release studies were developed by using a large-size molecule such as albumin and a small-size molecule as cresyl violet to detect the efficacy in both encapsulation settings. Albumin is not detectable by fluorescence reader or spectrophotometer, thus FITC was labeled to albumin. […] Different time points were measured to analyze short and long-term release. At 0, 1, 2, 4, 8, and 24 h, for short-term release, and 0, 0.33, 1, 2, 3, 7, 14, 21, 28, 42 days for long-term release, samples from the PBS solution that surrounded the chitosan hydrogels were analyzed by fluorescence reader (Alb-FITC and FITC) at 485/516 nm or spectrophotometer (CV) at 595 nm. The % release was calculated as follows: % Release=(Chitosan hydrogel−Blank)/(Control−Blank)*100
To assess these concepts, the release of fluorescence to the surrounding media was tested from chitosan hydrogels containing free-fluorescein, fluorescien-conjugated to bovine serum albumin (FITC-Alb), and FITC-Alb encapsulated in calcium-alginate microparticles.

CC(C)CCCC(C)C1CCC2C3CC(C[131I])C4=C(CCC(O)C4)C3CCC12C (centres unmarked) [^131I-nor-cholesterol]
radioactive leakage from the implant to adjacent normal tissues [1]: radioactive leakage from the implant starting at Day-1 that becomes more evident at Day-7

FITC-Alb: fluorescien-conjugated to bovine serum albumin, in chitosan hydrogel
relative release of fluorescence to the surrounding media [2]: less than half of the relative release of fluorescein
